# Measurements taken from the supplement of paper PMC11061612.
# Tests used:
# [1] = system: COR-L279 (Small Cell Lung Carcinoma); test: Bliss excess, mean over the matrix (fraction); higher = more synergy
# Procedure, shortened: (§1)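 Cell lines in DMEM/F12 or RPMI with 10% FBS were plated in 1536-well plates, held 24 hours at 37°C, 5% CO2, then given two-drug dose matrices for 72 hours (DMSO typically 0.2%). Viability was read by CellTiter-Glo 2.0 luminescence and scaled as inhibition from 0 (vehicle wells) to 1 (blank wells). Combination Emax is the second-highest inhibition in the matrix; Bliss excess is observed combination effect minus expected EA + EB − EA·EB, EA and EB being single-agent effects.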
# [2] = system: CW-2 (Colorectal Carcinoma); test: as above
# Procedure, shortened: as §1
# [3] = system: KP-3 (Pancreatic Carcinoma); test: as above
# Procedure, shortened: as §1
# [4] = system: KU812 (Chronic Myelogenous Leukemia); test: as above
# Procedure, shortened: as §1
# [5] = system: KYSE-270 (Esophageal Squamous Cell Carcinoma); test: as above
# Procedure, shortened: as §1
# M059J (Glioblastoma) = test: as above
# Procedure, shortened: as §1
# [6] = system: MN-60 (B-Lymphoblastic Leukemia); test: as above
# Procedure, shortened: as §1
# [7] = system: MOG-G-CCM (Low Grade Glioma); test: as above
# Procedure, shortened: as §1
# [8] = system: NCCIT (Other Solid Carcinomas); test: as above
# Procedure, shortened: as §1
# NCI-H2731 (Mesothelioma) = test: as above
# Procedure, shortened: as §1
# [9] = system: NCI-H3122 (Lung Adenocarcinoma); test: as above
# Procedure, shortened: as §1
# [10] = system: NCI-H520 (Squamous Cell Lung Carcinoma); test: as above
# Procedure, shortened: as §1
# [11] = system: NCI-H526 (Small Cell Lung Carcinoma); test: as above
# Procedure, shortened: as §1
# [12] = system: NCI-H929 (Plasma Cell Myeloma); test: as above
# Procedure, shortened: as §1
# [13] = system: OCI-AML3 (Acute Myeloid Leukemia); test: as above
# Procedure, shortened: as §1
# SJSA-1 (Osteosarcoma) = test: as above
# Procedure, shortened: as §1
# [14] = system: ST486 (Burkitt's Lymphoma); test: as above
# Procedure, shortened: as §1
# [15] = system: T-T (Esophageal Squamous Cell Carcinoma); test: as above
# Procedure, shortened: as §1
# [16] = system: VMRC-RCZ (Kidney Carcinoma); test: as above
# Procedure, shortened: as §1
# [17] = system: COR-L279 (Small Cell Lung Carcinoma); test: combination Emax (second highest fraction inhibited in the dose matrix, 72 h); higher = more inhibition; extreme values may be limits of the assay
# Procedure, shortened: as §1
# 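Throughout, for Bliss excess, mean over the matrix: after 72 h of two-drug dosing.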
Structure (SMILES),Bliss excess [1],Bliss excess [2],Bliss excess [3],Bliss excess [4],Bliss excess [5],Bliss excess (M059J (Glioblastoma)),Bliss excess [6],Bliss excess [7],Bliss excess [8],Bliss excess (NCI-H2731 (Mesothelioma)),Bliss excess [9],Bliss excess [10],Bliss excess [11],Bliss excess [12],Bliss excess [13],Bliss excess (SJSA-1 (Osteosarcoma)),Bliss excess [14],Bliss excess [15],Bliss excess [16],combination Emax [17]
"C[C@@H](Nc1cc(F)cc(F)c1)c1cc(C(=O)N(C)C)cc2c(=O)cc(N3CCOCC3)oc12 [AZD8186] + CC(=O)c1c(C)c2cnc(Nc3ccc(N4CCNCC4)cn3)nc2n(C2CCCC2)c1=O [Palbociclib] (first compound max 10 µM, 7x7, partner max 10 µM)",0.147,0.0464,0.0123,0.0412,-0.0036,-0.006,-0.0082,0.0077,0.0183,-0.0036,0.0528,0.111,-0.0207,-0.0272,0.0401,-0.0268,0.0478,0.0135,0.12,0.909
"C[C@@H](Oc1cc(-c2cnn(C3CCNCC3)c2)cnc1N)c1c(Cl)ccc(F)c1Cl [Crizotinib] + Cn1cnc2c(F)c(Nc3ccc(Br)cc3Cl)c(C(=O)NOCCO)cc21 [Selumetinib] (first compound max 10 µM, 7x7, partner max 10 µM)",-0.0192,-0.0423,-0.0229,-0.0466,0.0039,-0.0562,-0.0797,-0.0423,-0.0503,-0.0382,-0.0479,-0.0779,-0.0142,-0.0421,-0.0401,0.0262,-0.0819,0.0159,-0.0338,0.755
"O=C(c1cc(Cc2n[nH]c(=O)c3ccccc23)ccc1F)N1CCN(C(=O)C2CC2)CC1 [Olaparib] + CC1(C)CCC(CN2CCN(c3ccc(C(=O)NS(=O)(=O)c4ccc(NCC5CCOCC5)c([N+](=O)[O-])c4)c(Oc4cnc5[nH]ccc5c4)c3)CC2)=C(c2ccc(Cl)cc2)C1 [Venetoclax] (first compound max 10 µM, 7x7, partner max 1 µM)",0.0109,-0.0299,-0.0562,-0.0241,-0.0027,-0.0001,-0.0502,-0.0459,0.0127,-0.047,-0.0681,-0.0201,0.0372,-0.0036,0.0202,-0.0375,-0.0134,-0.0375,-0.052,0.943
"O=C(c1cc(Cc2n[nH]c(=O)c3ccccc23)ccc1F)N1CCN(C(=O)C2CC2)CC1 [Olaparib] + COc1nnc2ccc(N3CCC(c4ccc(OCCN5CCN(C)C(=O)[C@H]5C)cc4)CC3)nn12 [AZD5153] (first compound max 10 µM, 7x7, partner max 1 µM)",0.0327,-0.0592,-0.0554,-0.0778,0.0235,-0.0672,-0.0721,-0.0569,-0.0739,-0.0208,-0.0021,-0.0134,-0.0689,-0.0516,-0.0369,-0.0323,-0.0433,-0.0283,-0.0243,0.953
"O=C(c1cc(Cc2n[nH]c(=O)c3ccccc23)ccc1F)N1CCN(C(=O)C2CC2)CC1 [Olaparib] + Cc1c2c(nn1C)CSCc1cc(n(C)n1)CSc1cc(c3ccccc3c1)OCCCc1c(C(=O)O)n(C)c3c-2c(Cl)ccc13 [AZD5991] (first compound max 10 µM, 7x7, partner max 1 µM)",0.0494,-0.03,-0.0576,-0.0111,-0.0303,0.0008,-0.0496,-0.0519,0.0176,-0.0452,-0.0156,-0.0289,0.0251,-0.0215,0.0224,-0.0401,0.0593,-0.0217,-0.049,0.961
"N#Cc1cnc(Nc2cc(NC[C@H]3CNCCO3)c(C(F)(F)F)cn2)cn1 [SRA737] + C=CCn1c(=O)c2cnc(Nc3ccc(N4CCN(C)CC4)cc3)nc2n1-c1cccc(C(C)(C)O)n1 [AZD1775] (first compound max 10 µM, partner max 1 µM)",0.116,0.0162,0.0086,0.0668,0.136,0.073,-0.0125,0.0229,0.0855,0.0007,0.0718,0.055,0.0145,0.0295,0.171,0.0091,0.0356,0.0665,0.0259,0.834
"N#Cc1cnc(Nc2cc(NC[C@H]3CNCCO3)c(C(F)(F)F)cn2)cn1 [SRA737] + CCc1c2c(nc3ccc(O)cc13)-c1cc3c(c(=O)n1C2)COC(=O)[C@]3(O)CC [SN-38] (first compound max 10 µM, 7x7, partner max 0.3 µM)",-0.0153,-0.0853,-0.0089,-0.0939,-0.0265,-0.0326,-0.0495,-0.0105,0.0294,-0.005,-0.0454,-0.0063,-0.0427,-0.0781,-0.067,-0.0751,-0.0232,0.0451,-0.0348,1
"Cc1nc(-c2cn3c(n2)-c2ccc(-c4cnn(C(C)(C)C(N)=O)c4)cc2OCC3)n(C(C)C)n1 [Taselisib] + O=C(Nc1ccc2[nH]nc(-c3ccncc3)c2c1)[C@@H]1CCN(CC(=O)N2CCN(c3ccc(-c4ncccn4)cc3)CC2)C1 [SCH772984] (first compound max 10 µM, 7x7, partner max 5 µM)",0.0833,0.0458,0.0368,0.0569,0.0577,0.0027,-0.026,-0.0727,-0.032,0.0323,0.126,0.0461,0.0117,0.0344,0.0661,0.0019,0.0569,0.133,0.0004,0.835
"CC1(C)CCC(CN2CCN(c3ccc(C(=O)NS(=O)(=O)c4ccc(NCC5CCOCC5)c([N+](=O)[O-])c4)c(Oc4cnc5[nH]ccc5c4)c3)CC2)=C(c2ccc(Cl)cc2)C1 [Venetoclax] + CS(=O)(=O)CCNCc1ccc(-c2ccc3ncnc(Nc4ccc(OCc5cccc(F)c5)c(Cl)c4)c3c2)o1 [Lapatinib] (first compound max 1 µM, 7x7, partner max 10 µM)",-0.0185,-0.0116,-0.0487,0.0282,-0.0175,-0.0225,-0.0502,-0.0568,-0.024,-0.0257,-0.0229,-0.0169,0.105,-0.0098,0.01,-0.002,0.0224,-0.0066,-0.047,0.911
